# Article PMC5615911 (Toxicology Reports, 2016)
# Where “and” joins values, the source holds several entries; their conditions need not be identical. Equal entries are not always repeated. Entries after “also recorded” stand apart in the source; their conditions may differ.
# What was measured:
# [1] = Pharmacokinetics of S3643, single iv or oral dose; assay type: in vivo, Sprague-Dawley rats; conditions: male
# E. coli strain WP2 uvrA = test: Bacterial reverse mutation test; assay type: cell-based
# [2] = tested on: Chinese hamster ovary cells (CHO-WBL); test: In vitro micronucleus test; assay type: cell-based
# [3] = Toxicokinetics in the 90-day dietary study; assay type: in vivo, Sprague-Dawley rats; conditions: for AUC0–24 h/dose / Cmax/dose: M+F combined
# human umami receptor = conditions: cited from earlier work
# [4] = tested on: Primary human lymphocytes; test: In vitro chromosome aberration test
# hERG = hERG (Homo sapiens, UniProt Q12809); test: hERG electrophysiology
# CYP1A2 = molecular target: T1, CYP1A2 (Homo sapiens, UniProt P05177); test: CYP inhibition, LC–MS/MS assay in human liver microsomes
# T1 sequence (P05177 1-516): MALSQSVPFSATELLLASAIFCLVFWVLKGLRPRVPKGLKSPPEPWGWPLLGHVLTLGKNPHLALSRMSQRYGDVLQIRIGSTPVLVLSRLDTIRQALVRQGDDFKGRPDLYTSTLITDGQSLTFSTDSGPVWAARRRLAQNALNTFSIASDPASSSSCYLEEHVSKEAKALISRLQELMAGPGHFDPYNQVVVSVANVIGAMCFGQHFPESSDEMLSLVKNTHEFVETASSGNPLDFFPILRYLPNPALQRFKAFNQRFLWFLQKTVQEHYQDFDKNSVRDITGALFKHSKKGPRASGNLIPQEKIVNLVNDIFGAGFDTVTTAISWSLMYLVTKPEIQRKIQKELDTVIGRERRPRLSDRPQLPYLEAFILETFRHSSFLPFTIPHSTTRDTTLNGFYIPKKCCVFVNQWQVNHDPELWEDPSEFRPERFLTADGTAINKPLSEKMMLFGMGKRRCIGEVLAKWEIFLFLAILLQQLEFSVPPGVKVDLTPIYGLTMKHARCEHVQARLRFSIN
# CYP2C9 = CYP2C9 (Homo sapiens, UniProt P11712); test: as above; conditions: probe tolbutamide
# CYP3A4 = CYP3A4 (Homo sapiens, UniProt P08684); test: as above; conditions: for inhibition at 10 µM: human, human liver microsomes
# [5] = tested on: GPCRs, ion channels, nuclear receptors, transporters; test: Receptor lead profiling panel; conditions: 10 μM
# CYP3A4, sequence (P08684 whole entry): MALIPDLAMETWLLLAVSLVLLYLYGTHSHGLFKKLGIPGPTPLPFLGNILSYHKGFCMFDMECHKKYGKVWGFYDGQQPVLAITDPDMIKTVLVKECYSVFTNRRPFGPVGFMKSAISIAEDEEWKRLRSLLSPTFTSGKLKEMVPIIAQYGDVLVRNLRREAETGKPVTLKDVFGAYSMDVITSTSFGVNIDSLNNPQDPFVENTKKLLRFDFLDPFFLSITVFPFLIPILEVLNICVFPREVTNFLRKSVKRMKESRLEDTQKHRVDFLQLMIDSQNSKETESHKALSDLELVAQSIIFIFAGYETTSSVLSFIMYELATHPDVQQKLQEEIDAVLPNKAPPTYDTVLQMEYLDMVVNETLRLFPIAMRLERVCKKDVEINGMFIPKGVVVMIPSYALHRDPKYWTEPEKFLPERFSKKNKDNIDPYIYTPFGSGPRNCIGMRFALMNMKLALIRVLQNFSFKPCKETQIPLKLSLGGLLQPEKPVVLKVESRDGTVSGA
# hERG, sequence (Q12809 whole entry): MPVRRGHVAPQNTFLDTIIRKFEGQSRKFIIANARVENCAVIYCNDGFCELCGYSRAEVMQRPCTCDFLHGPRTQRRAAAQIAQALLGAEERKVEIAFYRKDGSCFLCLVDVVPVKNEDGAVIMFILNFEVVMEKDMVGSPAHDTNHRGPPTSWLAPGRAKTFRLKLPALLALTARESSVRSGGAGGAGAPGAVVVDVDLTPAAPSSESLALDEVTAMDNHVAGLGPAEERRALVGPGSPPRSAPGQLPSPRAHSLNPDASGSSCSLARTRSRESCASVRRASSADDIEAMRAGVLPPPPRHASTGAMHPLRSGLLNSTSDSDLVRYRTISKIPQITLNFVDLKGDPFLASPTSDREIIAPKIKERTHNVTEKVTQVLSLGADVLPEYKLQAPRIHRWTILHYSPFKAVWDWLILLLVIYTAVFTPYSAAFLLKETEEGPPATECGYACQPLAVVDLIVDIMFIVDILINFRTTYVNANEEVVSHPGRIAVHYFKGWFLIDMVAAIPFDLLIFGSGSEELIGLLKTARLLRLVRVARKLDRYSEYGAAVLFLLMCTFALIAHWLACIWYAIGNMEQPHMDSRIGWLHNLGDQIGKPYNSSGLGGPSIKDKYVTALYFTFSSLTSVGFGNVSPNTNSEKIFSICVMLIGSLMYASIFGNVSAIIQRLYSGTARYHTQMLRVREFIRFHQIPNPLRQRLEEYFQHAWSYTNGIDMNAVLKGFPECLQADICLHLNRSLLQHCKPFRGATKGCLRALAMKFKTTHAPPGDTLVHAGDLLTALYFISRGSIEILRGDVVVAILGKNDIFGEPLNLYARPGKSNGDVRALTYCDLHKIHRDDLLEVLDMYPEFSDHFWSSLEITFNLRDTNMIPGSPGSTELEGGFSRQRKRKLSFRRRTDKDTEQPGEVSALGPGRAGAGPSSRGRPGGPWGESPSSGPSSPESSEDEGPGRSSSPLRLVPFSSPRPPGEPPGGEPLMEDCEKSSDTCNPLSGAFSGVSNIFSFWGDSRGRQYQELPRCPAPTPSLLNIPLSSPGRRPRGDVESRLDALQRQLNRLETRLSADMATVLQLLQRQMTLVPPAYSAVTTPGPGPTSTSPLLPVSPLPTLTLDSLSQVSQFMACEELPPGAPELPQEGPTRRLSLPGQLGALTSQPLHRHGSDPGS
# CYP2C9, sequence (P11712 whole entry): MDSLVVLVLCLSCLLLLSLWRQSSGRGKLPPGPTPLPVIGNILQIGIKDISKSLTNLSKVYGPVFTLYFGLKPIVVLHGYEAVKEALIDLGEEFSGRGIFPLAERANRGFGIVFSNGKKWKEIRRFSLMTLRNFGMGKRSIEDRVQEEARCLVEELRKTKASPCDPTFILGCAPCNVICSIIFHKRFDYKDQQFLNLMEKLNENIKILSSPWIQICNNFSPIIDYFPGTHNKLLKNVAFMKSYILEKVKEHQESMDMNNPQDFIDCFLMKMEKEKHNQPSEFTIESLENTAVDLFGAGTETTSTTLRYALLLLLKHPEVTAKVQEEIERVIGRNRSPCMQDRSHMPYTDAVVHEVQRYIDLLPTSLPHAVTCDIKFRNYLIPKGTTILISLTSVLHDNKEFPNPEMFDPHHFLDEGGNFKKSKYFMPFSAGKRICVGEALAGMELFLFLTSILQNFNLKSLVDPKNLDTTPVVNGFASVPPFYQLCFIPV
smiles,measurement,setting,value
"COc1cccc(-c2n[nH]c(SCc3ccccn3)n2)c1OC [S3643, 2-(((3-(2,3-dimethoxyphenyl)-1H-1,2,4-triazol-5-yl)thio)methyl)pyridine]",Cmax,"[1]; Sprague-Dawley, rat, plasma, po, 100 mg/kg, Cmax, oral 100 mg/kg bw",78300 ng/mL and 238 µM
same,CL as % of hepatic blood flow,[1]; iv,10.8%
same,Vss as % of total body water volume,[1]; iv,50.4%
same,AUC0-last/dose,[1]; iv 1.0 mg/kg bw,2790 ng·h/mL/mg/kg
same,AUC0-last,"[1]; iv 1.0 mg/kg bw, 1 mg/kg",2.79 ± 0.187 µg·h/mL
same,Cmax,"[1]; iv 1.0 mg/kg bw, 1 mg/kg",10870 ± 1870 ng/mL
same,AUC0-last/dose,[1]; oral gavage 10 mg/kg bw,2665 ng·h/mL/mg/kg
same,Cmax,"[1]; oral gavage 10 mg/kg bw, 10 mg/kg",32510 ± 7710 ng/mL
same,AUC0-last/dose,[1]; oral gavage 30 mg/kg bw,2678 ng·h/mL/mg/kg
same,AUC0-last/dose,[1]; oral gavage 100 mg/kg bw,1833 ng·h/mL/mg/kg
same,"Reverse mutation (in vitro), result","E. coli strain WP2 uvrA; 250–5000 μg/plate, plate incorporation and pre-incubation, ±S9",Negative
same,"Mutagenicity, conclusion",E. coli strain WP2 uvrA; absence and presence of metabolic activation,not mutagenic
same,"Micronucleus formation (in vitro), result","[2]; 16–63 μg/mL, 19 h exposure, −S9",Negative
same,"Micronucleus formation (in vitro), result","[2]; 50–200 μg/mL, 3 h exposure, +S9",Negative
same,"Micronucleus formation (in vitro), result","[2]; 100–300 μg/mL, 3 h exposure, −S9",Negative
same,% cells in cytostasis,"[2]; 3 h, +S9, 50 μg/mL",−1%
same,% cells in cytostasis,"[2]; 3 h, +S9, 100 μg/mL",−2%
same,% cells in cytostasis,"[2]; 3 h, −S9, 100 μg/mL",1%
same,% cells in cytostasis,"[2]; 3 h, −S9, 200 μg/mL",0%
same,% cells in cytostasis,"[2]; 3 h, −S9, 300 μg/mL",25%
same,% cells in cytostasis,"[2]; 3 h, −S9, 450 μg/mL",93%
same,% cells in cytostasis,"[2]; 19 h, −S9, 16 μg/mL",10%
same,% cells in cytostasis,"[2]; 19 h, −S9, 63 μg/mL",50%
same,% cells in cytostasis,"[2]; 19 h, −S9, 130 μg/mL",93%
same,"Induction of micronuclei, conclusion",[2]; all conditions,did not induce micronuclei
same,AUC0–24 h/dose,"[3]; Day 7, nominal 10 mg/kg bw",574 ng·h/mL/mg/kg
same,Cmax/dose,"[3]; Day 7, nominal 10 mg/kg bw",31.9 ng/mL/mg/kg
same,AUC0–24 h/dose,"[3]; Day 7, nominal 30 mg/kg bw",1140 ng·h/mL/mg/kg
same,Cmax/dose,"[3]; Day 7, nominal 30 mg/kg bw",80.6 ng/mL/mg/kg
same,AUC0–24 h/dose,"[3]; Day 7, nominal 100 mg/kg bw",1280 ng·h/mL/mg/kg
same,Cmax/dose,"[3]; Day 7, nominal 100 mg/kg bw",75.7 ng/mL/mg/kg
same,AUC0–24 h/dose,"[3]; Day 90, nominal 10 mg/kg bw",1070 ng·h/mL/mg/kg
same,Cmax/dose,"[3]; Day 90, nominal 10 mg/kg bw",78.3 ng/mL/mg/kg
same,AUC0–24 h/dose,"[3]; Day 90, nominal 30 mg/kg bw",1560 ng·h/mL/mg/kg
same,Cmax/dose,"[3]; Day 90, nominal 30 mg/kg bw",98.0 ng/mL/mg/kg
same,AUC0–24 h/dose,"[3]; Day 90, nominal 100 mg/kg bw",1730 ng·h/mL/mg/kg
same,Cmax/dose,"[3]; Day 90, nominal 100 mg/kg bw",97.5 ng/mL/mg/kg
same,ACUM Ratio,"[3]; Day 90/Day 7, nominal 10 mg/kg bw",1.86
same,ACUM Ratio,"[3]; Day 90/Day 7, nominal 30 mg/kg bw",1.37
same,ACUM Ratio,"[3]; Day 90/Day 7, nominal 100 mg/kg bw",1.35
same,AUC(0-t),"[3]; both, Sprague-Dawley (Crl:CD(SD)), rat, plasma, po, 100 mg/kg bw/day, Combined mean AUC0-24hr, Day 90, 100 mg/kg bw/day",184 µg·h/mL
same,Concentration lower than MSG for equivalent umami flavour effect,human umami receptor,1000 fold
same,"Chromosome aberration (in vitro), result","[4]; 63–250 μg/mL, 3 h exposure, +S9",Negative
same,"Chromosome aberration (in vitro), result","[4]; 63–250 μg/mL, 20 h exposure, −S9",Negative
same,"Chromosome aberration (in vitro), result","[4]; 130–500 μg/mL, 3 h exposure, −S9",Negative
same,"Induction of structural and numerical chromosome aberrations, conclusion",[4]; non-activated and S9-activated,negative
same,inhibition at 10 µM,hERG,< 10%
same,IC50,CYP1A2,> 10 µM
same,inhibition at 10 µM,"CYP1A2; human, human liver microsomes, probe phenacetin",43%
same,inhibition at 10 µM,CYP2C9,8%
same,IC50,CYP3A4,> 10 µM
same,inhibition at 10 µM,CYP3A4,< 50%
same,inhibition at 10 µM,CYP3A4; probe midazolam,30%
same,Significant responses (≥50% inhibition or stimulation),[5],No significant responses; also recorded: No other significant off-target activities
